In US7132437B2, “Renal-selective biphenylalkyl 1H-substituted-1,2,4-triazole angiotensin II antagonists for treatment of hypertension” (G.D. Searle, priority 1990, dated 2006):

How the values were obtained:
rabbit aortic rings = assay: Assay B: In Vitro Vascular Smooth Muscle Response for AII; format: cell-based; conditions: for Assay B pA2 / Kb: antagonist at 10^-5 M, two values per cell = aorta rings from two rabbits; for Kb: Oryctolagus cuniculus, read-out: Assay B pA2 (converted)
Experimental: Assay B: In Vitro Vascular Smooth Muscle-Response for ATT
Compounds of Formula I were tested for antagonist activity in rabbit aortic rings. Male New Zealand white rabbits (2–2.5 kg) were sacrificed using an overdose of pentobarbital and exsanguinated via the carotid arteries. The thoracic aorta was removed, cleaned of adherent fat and connective tissue and then cut into 3-mm ring segments. The endothelium was removed from the rings by gently sliding a rolled-up piece of filter paper into the vessel lumen. The rings were then mounted in a water-jacketed tissue bath, maintained at 37° C., between moveable and fixed ends of a stainless steel wire with the moveable end attached to an FT03 Grass transducer coupled to a Model 7D Grass Polygraph for recording isometric force responses. The bath was filled with 20 ml of oxygenated (95% oxygen/5% carbon dioxide) Krebs solution of the following composition […]: 130 NaCl, 15 NaHCO3, 15 KCl, 1.2 NaH2PO4, 1.2 MgSO4, 2.5 CaCl2, and 11.4 glucose. The preparations were equilibrated for one hour before approximately one gram of passive tension was placed on the rings. Angiotensin II concentration-response curves were then recorded (3×10^−10 to 1×10–5 M). Each concentration of AII was allowed to elicit its maximal contraction, and then AII was washed out repeatedly for 30 minutes before rechallenging with a higher concentration of AII. Aorta rings were exposed to the test antagonist at 10^−5 M for 5 minutes before challenging with AII. Adjacent segments of the same aorta ring were used for all concentration-response curves in the presence or absence of the test antagonist. The effectiveness of the test compound was expressed in terms of pA2 values and were calculated according to H. O. Schild [Br. J. Pharmacol. Chemother., 2, 189–206 (1947)]. […] Each test antagonist was evaluated in aorta rings from two rabbits.

[1] = target: T1, smooth muscle angiotensin II receptor; assay: Assay A: Angiotensin II Binding Activity; conditions: rat uterine membrane preparation, displacement of 125I-AII
T1 construct: Rat uterine membranes were prepared from fresh tissue
Experimental: Assay A: Angiotensin II Binding Activity
Compounds of Formula I were tested for ability to bind to the smooth muscle angiotensin II receptor using a rat uterine membrane preparation. […] Other chemicals were obtained from Sigma Chemical Co. This assay was carried out according to the method of Douglas et al [Endocrinology, 106, 120–124 (1980)]. Rat uterine membranes were prepared from fresh tissue. All procedures were carried out at 4° C. Uteri were stripped of fat and homogenized in phosphate-buffered saline at pH 7.4 containing 5 mM EDTA. The homogenate was centrifuged at 1500×g for 20 min., and the supernatant was recentrifuged at 100,000×g for 60 min. The pellet was resuspended in buffer consisting of 2 mM EDTA and 50 mM Tris-HCl (pH 7.5) to a final protein concentration of 4 mg/ml. […] The reaction was initiated by the addition of membrane protein and the mixture was incubated at 25° C. for 60 min. The incubation was terminated with ice-cold 50 mM Tris-HCl (pH 7.5) and the mixture was filtered to separate membrane-bound labelled peptide from the free ligand. The incubation tube and filter were washed with ice-cold buffer. Filters were assayed for radioactivity in a Micromedic gamma counter. Nonspecific binding was defined as binding in the presence of 10 μM of unlabelled AII. Specific binding was calculated as total binding minus nonspecific binding. […] Binding data were analyzed by a nonlinear least-squares curve fitting program.

Compound	Assay B pA2 (rabbit aortic rings)	IC50 [1]	other results
CCCCc1nc(CCC2CCCCC2)n(Cc2ccc(-c3ccccc3-c3nnn[nH]3)cc2)n1 (single isomer, unassigned) [Example 42, 5-[4′-[[3-butyl-5-(2-cyclohexylethyl)-1H-1,2,4-triazol-1-yl]methyl][1,1′-biphenyl]-2-yl]-1H-tetrazole]	6.26	370 nM	–
CCCCc1nc(CCC)nn1Cc1ccc(-c2ccccc2C(=O)O)cc1 [Example 14, 4′-[(5-butyl-3-propyl-1H-1,2,4-triazol-1-yl)methyl]-[1,1′-biphenyl]-2-carboxylic acid]	–	–	Kb (rabbit aortic rings): 1.45 nM
CCCCc1nc(CCC(C)C)nn1Cc1ccc(-c2ccccc2C(=O)O)cc1 [Example 17, 4′-[(5-butyl-3-isopentyl-1H-1,2,4-triazol-1-yl]methyl)-[1,1′-biphenyl]-2-carboxylic acid]	–	4 nM	Kb (rabbit aortic rings): 2.29 nM
CCCCc1nc(CCC(C)C)n(Cc2ccc(-c3ccccc3C(=O)O)cc2)n1 [Example 16]	–	–	Kb (rabbit aortic rings): 1.12 nM
CCCCc1ncn(Cc2ccc(-c3ccccc3C(=O)O)cc2)n1 (single isomer, unassigned) [Example 19, 4′-[(3-butyl-1H-1,2,4-triazol-1-yl)methyl][1,1′-biphenyl]-2-carboxylic acid]	5.35	12000 nM	–
CCCCCc1nc(CN)nn1Cc1ccc(-c2ccccc2-c2nnn[nH]2)cc1 [Example 13, 5-[4′-[(3-aminomethyl-5-pentyl-1H-1,2,4-triazol-1-yl)methyl][1,1′-biphenyl]-2-yl]-1H-tetrazole]	–	–	Kb (rabbit aortic rings): 2 nM
CCCCc1nc(C(F)F)nn1Cc1ccc(-c2ccccc2-c2nnn[nH]2)cc1 (single isomer, unassigned) [Example 47, 5-[4′-[[5-butyl-3-(difluoromethyl)-1H-1,2,4-triazol-1-yl]methyl][1,1′-biphenyl]-2-yl]-1H-tetrazole]	7.58	21 nM	–
CCCCc1nc(CCCN)n(Cc2ccc(-c3ccccc3-c3nnn[nH]3)cc2)n1 [Example 71, 5-[4-[[3-butyl-5-(3-aminopropyl)-1H-1,2,4-triazol-1-yl]methyl][1,1′-biphenyl]-2-yl]-1H-tetrazole]	–	–	Assay B antagonist activity (symbol in pA2 column) (rabbit aortic rings): * (Antagonist activity not observed up to 10 μM of test compound.)
CCCCc1nc(C(F)(F)C(F)(F)C(F)(F)F)nn1Cc1ccc(-c2ccccc2-c2nnn[nH]2)cc1 [Example 70, 5-[4′-[[3-(1,1,2,2,3,3,3-heptafluoropropyl)-5-butyl-1H-1,2,4-triazol-1-yl]methyl][1,1′-biphenyl]-2-yl]-1H-tetrazole]	–	44 nM	–
CCCCc1nc(C(OC)OC)nn1Cc1ccc(-c2ccccc2-c2nnn[nH]2)cc1 (single isomer, unassigned) [Example 24]	7.73	10 nM	–
CCCCc1nc(Cl)n(Cc2ccc(-c3ccccc3C(=O)O)cc2)n1 (single isomer, unassigned) [Example 8, 4′-[(3-butyl-5-chloro-1H-1,2,4-triazol-1-yl)methyl][1,1′-biphenyl]-2-carboxylic acid]	–	17000 nM	–
CCCCc1ncnn1Cc1ccc(-c2ccccc2C(=O)O)cc1 (single isomer, unassigned) [Example 18, 4′-[(5-butyl-1H-1,2,4-triazol-1-yl)methyl][1,1′-biphenyl]-2-carboxylic acid]	6.09	970 nM	–
CCCCc1nc(CCc2ccccc2)n(Cc2ccc(-c3ccccc3-c3nnn[nH]3)cc2)n1 (single isomer, unassigned) [Example 25]	6.73	480 nM	–
CCCCc1nc(CCC2CCCCC2)nn1Cc1ccc(-c2ccccc2-c2nnn[nH]2)cc1 (single isomer, unassigned) [Example 43, 5-[4′-[[5-butyl-3-(2-cyclohexylethyl)-1H-1,2,4-triazol-1-yl]methyl][1,1′-biphenyl]-2-yl]-1H-tetrazole]	–	19 nM	–
CCCCc1nc(C(F)F)n(Cc2ccc(-c3ccccc3-c3nnn[nH]3)cc2)n1 (single isomer, unassigned) [Example 48, 5-[4′-[[3-butyl-5-(difluoromethyl)-1H-1,2,4-triazol-1-yl]methyl][1,1′-biphenyl]-2-yl]-1H-tetrazole]	–	680 nM	–
1,1-dimethylethyl [3-butyl-[1-2′-(1H-tetrazol-5-yl)[1,1′-biphenyl]-4-ylmethyl]-1H-1,2,4-triazol-5-yl]methylcarbamate [Example 34]	–	640 nM	–
CCCCc1nc(CC(OCC)OCC)nn1Cc1ccc(-c2ccccc2-c2nnn[nH]2)cc1 (single isomer, unassigned) [Example 38, 5-[4′-[[5-butyl-3-(2,2-diethyoxyethyl)-1H-1,2,4-triazol-1-yl]methyl][1,1′-biphenyl]-2-yl]-1H-tetrazole]	–	10 nM	–
CCCCCCCCc1nc(CCCC)n(Cc2ccc(-c3ccccc3-c3nnn[nH]3)cc2)n1 (single isomer, unassigned) [Example 29, 5-[4′-[(5-butyl-3-octyl-1H-1,2,4-triazol-1-yl)methyl][1,1′-biphenyl]-2-yl]-1H-tetrazole]	–	160 nM	–
CCCCc1nc(C=O)nn1Cc1ccc(-c2ccccc2-c2nnn[nH]2)cc1 [Example 49, 5-butyl-1-[2′-(1H-tetrazol-5-yl)[1,1′-biphenyl]-4-ylmethyl]-1H-1,2,4-triazole-3-carboxaldehyde]	7.07	–	–
CCCCc1nc(CNC(C)=O)nn1Cc1ccc(-c2ccccc2-c2nnn[nH]2)cc1 [Example 31, N-[[5-butyl-1-[2′-(1H-tetrazol-5-yl)[1,1′-biphenyl]-4-ylmethyl]-1H-1,2,4-triazol-3-yl]methyl]acetamide]	–	14 nM	–
CCCc1nc(CN)nn1Cc1ccc(-c2ccccc2-c2nnn[nH]2)cc1 [Example 12, 5-[4′-[(3-aminomethyl-5-propyl-1H-1,2,4-triazol-1-yl)methyl][1,1′-biphenyl]-2-yl]-1H-tetrazole]	–	6 nM	Kb (rabbit aortic rings): 2.19 nM
CCCCc1nc(C)n(Cc2ccc(-c3ccccc3-c3nnn[nH]3)cc2)n1 (single isomer, unassigned) [Example 33, 5-[4′-[(3-butyl-5-methyl-1H-1,2,4-triazol-1-yl)methyl][1,1′-biphenyl]-2-yl]-1H-tetrazole]	–	630 nM	–
CCCCc1nc(CCCC)n(Cc2ccc(-c3ccccc3C(=O)O)cc2)n1 [Example 2, 4′-[(3,5-dibutyl-1H-1,2,4-triazol-1-yl)methyl][1,1′-biphenyl]-2-carboxylic acid]	–	–	Kb (rabbit aortic rings): 42.7 nM
CCCCc1nc(CC)nn1Cc1ccc(-c2ccccc2-c2nnn[nH]2)cc1 (single isomer, unassigned) [Example 39, 5-[4′-[(5-butyl-3-ethyl-1H-1,2,4-triazol-1-yl)methyl][1,1′-biphenyl]-2-yl]-1H-tetrazole]	7.84	10 nM	–
CCCCc1nc(CCC)n(Cc2ccc(-c3ccccc3C(=O)O)cc2)n1 [Example 15, 4′-[(3-butyl-5-propyl-1H-1,2,4-triazol-1-yl)methyl]-[1,1′-biphenyl]-2-carboxylic acid]	–	16 nM	Kb (rabbit aortic rings): 4.9 nM
CCCCc1nc(CC(OCC)OCC)n(Cc2ccc(-c3ccccc3-c3nnn[nH]3)cc2)n1 (single isomer, unassigned) [Example 37, 5-[4′-[[3-butyl-5-(2,2-diethyoxyethyl)-1H-1,2,4-triazol-1-yl]methyl][1,1′-biphenyl]-2-yl]-1H-tetrazole]	6.85	340 nM	–
CCCCc1nc(CC)n(Cc2ccc(-c3ccccc3-c3nnn[nH]3)cc2)n1 (single isomer, unassigned) [Example 40, 5-[4′-[(3-butyl-5-ethyl-1H-1,2,4-triazol-1-yl)methyl][1,1′-biphenyl]-2-yl]-1H-tetrazole]	–	83 nM	–
CCCCc1nc(C(F)(F)CCC)n(Cc2ccc(-c3ccccc3C(=O)O)cc2)n1 [Example 11, 4′-[[3-butyl-5-(1,1-difluorobutyl)-1H-1,2,4-triazol-1-yl]methyl][1,1′-biphenyl]-2-carboxylic acid]	–	160 nM	–
